Measured values reported in patent publication US9233961B2, “Compounds and compositions for the treatment of parasitic diseases” (Novartis AG, priority 2013, dated 2016).

Tests used:
[1] = test system: Trypanosoma brucei Lister 427 strain bloodstream form; assay: Assay for proliferation of kinetoplastid parasite Trypanosoma brucei; assay type: cell-based; settings: Lister 427 bloodstream form, 48 hours, read-out: T. brucei EC50
From the text: Assay for Proliferation of Kinetoplastid Parasite Trypanosoma brucei.
The proliferation is quantified by the addition of Cell Titer Glo (Promega®) a luminescent cell viability assay that measures the number of viable cells in culture based on the quantification of cellular ATP amount, which is an indicator of metabolically active cells.
The following assay illustrates the invention without in any way limiting the scope of the invention. This parasite proliferation assay measures the increase in parasite growth using an assay that measures ATP activity, Cell Titer Glo®.
Trypanosoma brucei Lister 427 strain is grown in HMI-9 Trypanosome media for T. brucei bloodstream form. 30 μl of HMI-9 media is dispensed into 384 well assay plates. 200 nl of compounds of the invention (in DMSO), including anti-trypanosome controls (Pentamidine and suramin), are then transferred into the assay plates, as well as DMSO alone to serve as a negative control for inhibition. Then 25 μl of a suspension of T. brucei culture in HMI-9 media is dispensed into the assay plates. The final concentration of parasites in culture corresponds to 1.7% of 0.5 uM ATP activity with Cell Titer Glo® in HMI-9 media. The plates are placed in a 37° C. incubator for 48 hours in an atmospheric environment containing 5% CO2. 40 μl of Cell Titer Glo® is dispensed into the plates. The plates are then read for luminescence. The percentage inhibition of 50%, EC50, is calculated for each compound.

[2] = test system: Leishmania donovani axenic amastigote parasites; assay: Leishmania donovani axenic amastigote proliferation assay; assay type: cell-based; settings: axenic amastigotes in vitro, read-out: L. donovani amastigotes EC50
Summary of the method: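 EC50 values come from CellTiter-Glo luminescence after 2-day compound exposure of axenic amastigotes (9600 per well) at 37 °C, 5% CO2. Medium: RPMI 1640, 20% heat-inactivated FBS, folic acid, adenosine, D-glucose, 25 mM MES, adjusted to pH 5.5.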

[3] = test system: L. donovani HU3 strain in mouse peritoneal macrophages; assay: Assay for proliferation of Leishmania parasites in mouse peritoneal macrophages; assay type: cell-based, Leishmania donovani; settings: Leishmania donovani, Peritoneal macrophage, read-out: L. donavani Macrophage EC50
Summary of the method: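 EC50 derives from counting SYBR Green-stained parasite nuclei by high-content imaging after 5 days' compound exposure. Host cells were uninfected BALB/c peritoneal macrophages, infected for 24 h before dosing with spleen-derived L. donovani HU3 parasites from mice infected 9–11 weeks.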

| SMILES | EC50 [1] | EC50 [2] | EC50 [3] |
| --- | --- | --- | --- |
| O=C(Nc1ccc(Cl)c(-c2nc3ncc(-c4ccc(OCCN5CCOCC5)nc4)cc3[nH]2)c1)c1ccco1 [Compound 11] | 0.0064 µM | 0.55 µM | 0.46 µM |
| N#Cc1ccc(-c2cnc3nc(-c4cc(NC(=O)c5ccco5)ccc4Cl)[nH]c3c2)cc1 [Compound 20] | 0.054 µM | 0.239 µM | 1.78 µM |
| O=C(Nc1ccc(Cl)c(-c2nc3ncc(-c4ccc(OCCN5CCCCC5)cc4)cc3[nH]2)c1)c1ccco1 [Compound 21] | 0.063 µM | 16 µM | 2.8 µM |
| COc1cc(-c2cnc3nc(-c4cc(NC(=O)c5ccco5)ccc4Cl)[nH]c3c2)ccc1NC(=O)OC(C)(C)C [Compound 34] | 0.105 µM | 0.6 µM | 1.79 µM |
| O=C(Nc1ccc(Cl)c(-c2nc3ncc(-c4ccc(OCC5CC5)cc4)cc3[nH]2)c1)c1ccco1 [Compound 36] | 0.188 µM | 1.03 µM | 2.27 µM |
| O=C1Cc2cc(-c3cnc4nc(-c5cc(NC(=O)c6ccco6)ccc5Cl)[nH]c4c3)ccc2N1 [Compound 43] | 0.0216 µM | 0.73 µM | 6.9 µM |
| CS(=O)(=O)c1ccc(-c2cnc3nc(-c4cc(NC(=O)c5ccco5)ccc4Cl)[nH]c3c2)cc1 [Compound 46] | 0.037 µM | 0.5 µM | 1.33 µM |
| COc1ccc(-c2cnc3nc(-c4cc(NC(=O)c5ccco5)ccc4Cl)[nH]c3c2)cc1Cl [Compound 48] | 0.076 µM | 0.53 µM | 8 µM |
| COc1ccc(-c2cnc3nc(-c4cc(NC(=O)c5ccco5)ccc4Cl)[nH]c3c2)cc1S(=O)(=O)N1CCCC1 [Compound 49] | 0.0067 µM | 0.44 µM | 1.05 µM |
| O=C(Nc1ccc(Cl)c(-c2nc3ncc(-c4ccnc(F)c4)cc3[nH]2)c1)c1ccco1 [Compound 51] | 0.0193 µM | 0.175 µM | 0.56 µM |
| CN1CCc2cc(-c3cnc4nc(-c5cc(NC(=O)c6ccco6)ccc5Cl)[nH]c4c3)ccc21 [Compound 59] | 0.143 µM | 1.34 µM | 3.7 µM |
| COc1ccc(-c2cnc3nc(-c4cc(NC(=O)c5ccco5)ccc4Cl)[nH]c3c2)c(OC)n1 [Compound 61] | 0.182 µM | 1.13 µM | 3.2 µM |
| CC(C)N1CCN(c2ccc(-c3cnc4nc(-c5cc(NC(=O)c6ccco6)ccc5Cl)[nH]c4c3)cc2)CC1 [Compound 62] | 0.52 µM | 19.2 µM | 9.4 µM |
| CN(C)CCOc1ccc(-c2cnc3nc(-c4cc(NC(=O)c5ccco5)ccc4Cl)[nH]c3c2)cc1 [Compound 69] | 0.1 µM | 18.1 µM | 2.74 µM |
| CN1CCOc2cc(-c3cnc4nc(-c5cc(NC(=O)c6ccco6)ccc5Cl)[nH]c4c3)ccc21 [Compound 72] | 0.073 µM | 0.67 µM | 3.2 µM |
| Cc1cnc2nc(-c3cc(NC(=O)c4cc(C)on4)ccc3Cl)[nH]c2c1 [Compound 79] | 12.5 µM | > 25 µM | > 50 µM |
| Cc1cnc2nc(-c3cc(NC(=O)c4nc(C)cs4)ccc3Cl)[nH]c2c1 [Compound 80] | 0.61 µM | 5.9 µM | 18.5 µM |
| Cc1cnc2nc(-c3cc(NC(=O)C(C)(C)c4ccc(Cl)cc4)ccc3Cl)[nH]c2c1 [Compound 81] | 10.8 µM | > 25 µM | 16.9 µM |
| Cc1cnc2nc(-c3cc(NC(=O)Cc4ccc(N(C)C)cc4)ccc3Cl)[nH]c2c1 [Compound 82] | > 14.1 µM | > 25 µM | > 38.5 µM |
| Cc1cnc2nc(-c3cc(NC(=O)Cc4c(F)cccc4F)ccc3Cl)[nH]c2c1 [Compound 87] | > 6.9 µM | > 25 µM | 24.4 µM |
| Cc1cnc2nc(-c3cc(NC(=O)c4ncc[nH]4)ccc3Cl)[nH]c2c1 [Compound 95] | > 14.4 µM | > 25 µM | > 50 µM |
| Cc1cnc2nc(-c3cc(NC(=O)Cc4ccc(C(F)(F)F)cc4)ccc3Cl)[nH]c2c1 [Compound 96] | 8.9 µM | > 25 µM | 20.7 µM |
| Cc1cnc2nc(-c3cc(NC(=O)Cc4cccnc4)ccc3Cl)[nH]c2c1 [Compound 97] | > 18.7 µM | > 25 µM | > 50 µM |
| Cc1cnc2nc(-c3cc(NC(=O)c4nnc(C)o4)ccc3Cl)[nH]c2c1 [Compound 106] | 13.3 µM | > 25 µM | > 50 µM |

| SMILES | EC50 [1] | EC50 [2] | EC50 [3] |
| --- | --- | --- | --- |
| Cc1cnc2nc(-c3cc(NC(=O)c4csc(C)n4)ccc3Cl)[nH]c2c1 [Compound 107] | 0.51 µM | 5.5 µM | 21.5 µM |
| COc1ccccc1C(=O)Nc1ccc(Cl)c(-c2nc3ncc(C)cc3[nH]2)c1 [Compound 108] | 8.3 µM | > 25 µM | 16.3 µM |
| Cc1cnc2nc(-c3cc(NC(=O)c4ccc(N5CCOCC5)cc4)ccc3Cl)[nH]c2c1 [Compound 109] | 15.1 µM | > 24.4 µM | > 19.1 µM |
| Cc1cnc2nc(-c3cc(NC(=O)c4ccc(S(C)(=O)=O)cc4Cl)ccc3Cl)[nH]c2c1 [Compound 110] | > 13.6 µM | > 25 µM | 23.8 µM |
| Cc1cnc2nc(-c3cc(NC(=O)C(C)(C)NC(=O)OC(C)(C)C)ccc3Cl)[nH]c2c1 [Compound 111] | > 13.6 µM | > 25 µM | > 50 µM |
| Cc1cnc2nc(-c3cc(NC(=O)CNC(=O)OC(C)(C)C)ccc3Cl)[nH]c2c1 [Compound 112] | > 24.1 µM | > 25 µM | > 50 µM |
| Cc1cnc2nc(-c3cc(NC(=O)c4cocn4)ccc3Cl)[nH]c2c1 [Compound 113] | 1.68 µM | 15.3 µM | 26.4 µM |
| Cc1cnc2nc(-c3cc(NC(=O)Cc4ccc(F)cc4F)ccc3Cl)[nH]c2c1 [Compound 114] | > 11.9 µM | > 25 µM | > 41.5 µM |
| Cc1cnc2nc(-c3cc(NC(=O)c4ccc(C(F)(F)F)cn4)ccc3Cl)[nH]c2c1 [Compound 115] | 2.6 µM | 16.8 µM | 25.3 µM |
| Cc1cnc2nc(-c3cc(NC(=O)CN)ccc3Cl)[nH]c2c1 [Compound 116] | > 25 µM | > 25 µM | > 50 µM |
| Cc1cnc2nc(-c3cc(NC(=O)C4CC(F)(F)C4)ccc3Cl)[nH]c2c1 [Compound 117] | > 13.5 µM | > 25 µM | > 50 µM |
| Cc1cnc2nc(-c3cc(NC(=O)C4CCC4)ccc3Cl)[nH]c2c1 [Compound 118] | 3.2 µM | 11.1 µM | 21.8 µM |
| Cc1cnc2nc(-c3cc(NC(=O)C(C)c4ccc(F)cc4)ccc3Cl)[nH]c2c1 (stereo not drawn) [Compound 119] | > 16.2 µM | > 25 µM | 24.2 µM |
| Cc1cnc2nc(-c3cc(NC(=O)COc4ccccc4)ccc3Cl)[nH]c2c1 [Compound 120] | 10.5 µM | > 25 µM | > 50 µM |
| Cc1cnc2nc(-c3cc(NC(=O)Cc4ccc(OC(F)(F)F)cc4)ccc3Cl)[nH]c2c1 [Compound 121] | > 17.3 µM | > 25 µM | > 21.2 µM |
| Cc1cnc2nc(-c3cc(NC(=O)Cn4cncn4)ccc3Cl)[nH]c2c1 [Compound 122] | > 25 µM | > 25 µM | > 50 µM |
| Cc1cnc2nc(-c3cc(NC(=O)C4Cc5ccccc5O4)ccc3Cl)[nH]c2c1 (stereo not drawn) [Compound 123] | 4.1 µM | 20.3 µM | > 50 µM |
| Cc1cnc2nc(-c3cc(NC(=O)C4(C)CN(C(=O)OC(C)(C)C)C4)ccc3Cl)[nH]c2c1 [Compound 133] | > 25 µM | > 25 µM | > 50 µM |
| Cc1cnc2nc(-c3cc(NC(=O)c4oc(C)nc4C)ccc3Cl)[nH]c2c1 [Compound 139] | 0.33 µM | 1.06 µM | 25.8 µM |
| Cc1cnc2nc(-c3cc(NC(=O)c4cccc(S(C)(=O)=O)c4)ccc3Cl)[nH]c2c1 [Compound 140] | 6.8 µM | > 25 µM | > 50 µM |
| Cc1cnc2nc(-c3cc(NC(=O)C(c4ccc(Cl)cc4)C(C)C)ccc3Cl)[nH]c2c1 (stereo not drawn) [Compound 141] | 6.2 µM | 13.9 µM | 9.7 µM |
| Cc1cnc2nc(-c3cc(NC(=O)Cc4ccc(F)c(F)c4)ccc3Cl)[nH]c2c1 [Compound 142] | > 14 µM | > 25 µM | 20.7 µM |
| Cc1cnc2nc(-c3cc(NC(=O)CCO)ccc3Cl)[nH]c2c1 [Compound 143] | > 14.4 µM | > 25 µM | > 50 µM |
| Cc1cnc2nc(-c3cc(NC(=O)Cc4ccc(Cl)cc4)ccc3Cl)[nH]c2c1 [Compound 144] | > 11.3 µM | > 25 µM | 26 µM |
